This note sets out measurements from ChEMBL document CHEMBL3046538, “Synthesis of simplified herboxidiene aromatic hybrids” (2000).

Common to all, as to assay type: functional
The subject of one experiment is Abutilon. In words: Herbicidal activity against Abutilon assessed as control at 1 kg/hacter post-emergently.
Experiment [1] can be described thus: Herbicidal activity against biennial weeds assessed as control at 1 kg/hacter post-emergently.
The test system of another experiment is Solanum. In words: Herbicidal activity against Solanum assessed as control at 1 kg/hacter post-emergently.
The subject of a further experiment is Amaranthus spinosus. Nature of the experiment: Herbicidal activity against Amaranthus spinosus assessed as control at 1 kg/hacter post-emergently.

With `CCCC[C@H]1O[C@H]1CCOc1cccc([C@@H]2CCC[C@H](CC(=O)OC)O2)c1`, the Efficacy in the experiment with Abutilon stood at 10%; in experiment [1] it was 10%; in the experiment with Solanum, 90%; with Amaranthus spinosus, 30%.

In the case of `COC(=O)C[C@H]1CC[C@H](C)[C@@H](/C(C)=C/C=C/[C@@H](C)C[C@@]2(C)O[C@@H]2[C@H](C)[C@@H](OC)[C@@H](C)O)O1` [HERBOXIDIENE METHYL ESTER], the Efficacy (with Abutilon; in experiment [1]; in the experiment with Solanum; in the experiment on Amaranthus spinosus) was 100% each time.
